One assay relates to L. prolificans FMR 3569. Nature of the assay: Lomentospora prolificans FMR 3569 disseminated infection model (survival, tissue burden). Type of assay: in vivo, Male OF-1 mice. The conditions noted are these: VRC 25 mg/kg p.o. QD; Example 1 20 mg/k p.o. BID; from day 1 after challenge for 9 days.
The subject of assay [1] is A. fumigatus strain A1163. Nature of the assay: Murine survival model of Aspergillus fumigatus infection (survival, kidney burden, serum galactomannan). The conditions noted are these: positive control; 10 mg/kg b.i.d. by the oral route; A. fumigatus infected mice. It counts as in vivo, male CD-1 mice. The procedure: Murine survival models are frequently used to assess the efficacy of antifungal drugs against Aspergillus. The models used in the development of Example 1 were carried out at Euprotec Ltd (Manchester) a contract research organisation (CRO) with extensive experience in the evaluation of antifungal drugs. The typical model involves the use of groups of 6-10 male CD-1 mice per treatment group. Mice are immunosuppressed with 200 mg/kg cyclophosphamide injected intraperitoneal 3 days prior to infection. A. fumigatus strain A1163 is cultured on Sabourauds agar for 4-6 days at 35° C. Spores are harvested in phosphate buffered saline (PBS)/Tween, the suspension diluted and the number of spores enumerated. Mice are then infected with an intravenous injection of A. fumigatus spores given through the lateral tail vein. The typical inoculum is 6-8×10^4 cfu/mouse and is sufficient to kill all untreated animals by Day 4-6. The animals die of IA and Aspergillus organisms can be detected in many body tissues. Treatment is typically commenced soon after infection but delays of up to 24 h following infection produce a more challenging model. Treatment is continued for 7-9 days. Treatment may be up to 3 times daily using an oral dosing. Following cessation of treatment, animals are observed for 1-2 days, and then sacrificed. Relevant controls treated with oral drug-free vehicle are always included; ideally there should be no survivors in this group. A positive control consisting of an antifungal drug such as Reference Example 10 was used. This compound consistently produces 100% survival at doses of 10 mg/kg b.i.d. dosed by the oral route. Most models are run as temporary neutropenic models where only a single dose of cyclophosphamide is administered.
The fungal burden in the kidney can be determined on animals surviving to the end of the study and this can help provide efficacy discrimination between groups where all animals survive. Tissue burdens are carried out by removing the kidneys from animals when they are culled at the end of the study. These are homogenised in saline and plated onto Sabourauds agar and incubated at 35° C. for 72 h. Aspergillus colonies are counted and the amount of aspergillus per gram of kidney calculated. The results are expressed as colony forming units per gramme (cfu/g). […] However, data from studies where tissue burden has been carried out on untreated animals at day 4 or 5 has shown that tissue burdens are typically in excess of 20,000 cfu/g and may exceed 100,000 cfu/g in some studies.
In some of the survival studies described below serum samples were collected from surviving mice at the end of the study or on mice that succumbed to infection during the study to examine the effect of Example 1 on galactomannan levels and to see if there was a relationship between galactomannan levels and survival.
The galactomannan assays were carried out on serum samples that had been stored frozen at −80° C. Samples were thawed and assayed using a Platelia Aspergillus Ag enzyme-linked immunosorbent assay (ELISA) kit (Biorad). The assay was modified slightly to take into account the small sample volumes available from mice. If assay results were high a repeat test was carried out on a sample diluted in normal mouse serum. The amount of galactomannan in a sample is presented as a galactomannan index. The mean galactomannan index for each group was calculated and is presented graphically against each treatment regimen.
The survival study carried assessed the dose response of Example 1. Example 1 was dosed orally to A. fumigatus infected mice at 2 dose levels 10 mg/kg b.i.d. and 3 mg/kg b.i.d. Therapy was initiated at 24 h post infection and therapy continued for 8 days. At the end of the study kidney burdens were measured on surviving animals. In addition serum samples were taken at the end of the study from all surviving animals and from each animal that died during the course of the study. […]

The test system of assay [2] is Scedosporium apiospermum 7935. The assay can be described thus: Minimum Inhibitory Concentration (MIC), RPMI medium. It counts as cell-based. The procedure: (§1) Between 1 and 5 mgs of the compound were accurately weighed out into a sterile Eppendorf tube. The compound was dissolved in DMSO to give a solution containing 5 mg/mL. Tubes were stored at −20° C. until required.
(§2) On the day of testing thawed solutions were vortex mixed to ensure homogeneity. 30 μL of solution was removed and added to 570 μL of sterile water in a separate sterile Eppendorf. The thoroughly mixed solution was used to prepare a series of doubling dilutions in water, in a deep well plate. Thirteen replicate plates were prepared using a Minitrak by aspirating 20 μL from each well into eleven clear polystyrene 96 well plates.
(§3) Spores of Aspergillus and Scedosporium were harvested from cultures grown on Sabarauds agar for 5 days, and resuspended in PBS/Tween 80 to approx 1×10^7 cfu/mL. Each organism suspension was diluted in RPMI medium, containing 2% glucose and 0.135 M MOPS buffer (pH 7.0) to 0.5-2×10^4 cfu/mL. 80 μL of an organism suspension was added to each well of the plate containing drug dilutions.
(§4) This produced MIC plates with a drug range 50-0.05 mg/L and organism inocula of 1-2×10^4 cfu/mL. All plates were incubated for 24-48 h at 35° C. Growth was assessed by monitoring the optical density at 485 nm for each well. The MIC of a compound is the lowest drug concentration that inhibits growth of an organism by >80% compared with a drug free control.

The test system of the next assay is A. fumigatus. Described as above. Type of assay: cell-based. The following applies: Aspergillus fumigatus, >80% growth inhibition. The protocol: as §1, §2, §3, §4
Assay [3] has as its system Scedosporium apiospermum 451. The description is as above. Type of assay: cell-based. The procedure:
as §1, §2, §3, §4

Assay [4] has as its system Scedosporium prolificans 18389. The assay is described as above. Type of assay: cell-based. The conditions noted are these: Lomentospora prolificans. The procedure: as §1, §2, §3, §4
Assay [5] deals with Scedosporium apiospermum 8353. Described as above. It counts as cell-based. The procedure: as §1, §2, §3, §4
In the next assay the test system is A. niger. Described as above. Type of assay: cell-based. The following applies: Aspergillus niger, >80% growth inhibition. The protocol: as §1, §2, §3, §4
The next assay has as its system A. fumigatus 210. Described as above. Type of assay: cell-based. The following applies: Aspergillus fumigatus, >80% growth inhibition. The procedure:
as §1, §2, §3, §4

Assay [6] concerns Scedosporium apiospermum 13486. The assay is described as above. Type of assay: cell-based. The protocol: as §1, §2, §3, §4
Assay [7] has as its system Scedosporium species 15849. The assay is described as above. It counts as cell-based. The protocol:
as §1, §2, §3, §4

The test system of assay [8] is Scedosporium apiospermum 4883. Described as above. Type of assay: cell-based. The procedure:
as §1, §2, §3, §4

Assay [9] concerns Scedosporium prolificans 206. Described as above. The conditions noted are these: Lomentospora prolificans. It counts as cell-based. The protocol:
as §1, §2, §3, §4

A further assay concerns A. terreus. The assay is described as above. The following applies: Aspergillus terreus, >80% growth inhibition. Type of assay: cell-based. The procedure: as §1, §2, §3, §4
Assay [10] has as its system Scedosporium prolificans 6322. The description is as above. It counts as cell-based. The conditions noted are these: Lomentospora prolificans. The protocol:
as §1, §2, §3, §4

Another assay has as its system A. flavus. The description is as above. It counts as cell-based. The following applies: Aspergillus flavus, >80% growth inhibition. The procedure: as §1, §2, §3, §4
For assay [11], the system named is Scedosporium apiospermum 15848. Described as above. It counts as cell-based. The protocol: as §1, §2, §3, §4
The next assay deals with A. terreus 49. Described as above. The following applies: Aspergillus terreus, >80% growth inhibition. Type of assay: cell-based. The procedure: as §1, §2, §3, §4

Data on two molecules can be found in US10596150B2, “Antifungal agents” (F2G LIMITED, priority 2014, dated 2020).

Converted amounts (≈) assume the structure as drawn. Some results are limits rather than exact numbers.

Procedure for L. prolificans FMR 3569: L. prolificans (also known as Scedosporium prolificans or S. prolificans) was grown on Potato Dextrose Agar (PDA) for 5 days at 35° C. On the day of infection, cultures were flooded with sterile saline and filtered through sterile gauze to remove clumps of conidia and hyphae. The resulting suspensions were adjusted by haemocytometer count and by serial plating to confirm viability.
Male OF-1 mice with a mean weight of 30 g were used in the experiment. Mice were housed in standard boxes with food and water ad libitum.
Mice were rendered neutropenic two days prior to infection by an intraperitoneal (i.p.) injection of 200 mg/kg of cyclophosphamide, and once every 5 days thereafter (Clemons et al, 2005).
Mice were challenged with 5×10^4 CFU/animal of L. prolificans FMR 3569, in a volume of 0.2 ml of sterile saline into the lateral tail vein.
Treatments consisted of (a) voriconazole (VRC) (Vfend; Pfizer S. A., Madrid, Spain) at 25 mg/kg p.o, by gavage QD; (b) Example 1 at 20 mg/k, p.o, by gavage BID; and (c) no treatment. From 3 days before infection, mice that received VRC were given grapefruit juice instead of water (Sugar & Liu, 2001). All treatments began 1 day after challenge, and the therapy lasted for 9 days. Controls received no treatment.
For survival studies groups of 10 mice were randomly established for each therapy. Mortality was recorded daily until the end of the experiment. […]

For the molecule `C[C@@H](c1ncncc1F)[C@](O)(Cn1cncn1)c1ccc(F)cc1F` [VRC, voriconazole], the “survival rates compared with the control (FIG. 7)” value in the assay on L. prolificans FMR 3569 is recorded as “no significant increase”.
Usually MIC stands for the lowest concentration found to suppress growth. A low value points to inhibition by little substance. `Cc1cc(C)nc(N2CCN(c3ccc(NC(=O)C(=O)c4c(-c5ccccc5)cc(C)n4C)cc3)CC2)c1` [Ref. Example 10, 2-(1,5-Dimethyl-3-phenyl-1H-pyrrol-2-yl)-N-{4-[4-(4,6-dimethyl-pyridin-2-yl)-piperazin-1-yl]-phenyl}-2-oxo-acetamide] registered a survival in assay [1] of 100%. For the same molecule, the MIC in assay [2] was more than 0.06 µg/mL; in the assay on A. fumigatus, 0.02 to 0.04 µg/mL (≈ 0.0394 to 0.0788 µM); in [3] it was more than 0.06 µg/mL; in assay [4], more than 0.06 µg/mL; in [5], 0.04 to 0.06 µg/mL (≈ 0.0788 to 0.118 µM); with A. niger it was more than 0.06 µg/mL. In addition, the MIC in the assay with A. fumigatus 210 is 0.02 to 0.04 µg/mL (≈ 0.0394 to 0.0788 µM); in [6] (Scedosporium apiospermum, 13486), more than 0.06 µg/mL; in [7], more than 0.06 µg/mL; in assay [8], 0.02 to 0.04 µg/mL (≈ 0.0394 to 0.0788 µM); in assay [9] it was more than 0.06 µg/mL; with A. terreus it was 0.02 to 0.04 µg/mL (≈ 0.0394 to 0.0788 µM). Besides, the MIC in [10] is 0.04 to 0.06 µg/mL (≈ 0.0788 to 0.118 µM); with A. flavus it was 0.04 to 0.06 µg/mL (≈ 0.0788 to 0.118 µM); in [11], more than 0.06 µg/mL; in the assay on A. terreus 49, 0.02 to 0.04 µg/mL (≈ 0.0394 to 0.0788 µM). Further, the “MIC Scedosporium apiospermum 13486” value in [6] was “F (a grade of F represents an MIC of greater than 0.06 mg/L)”.
